Test results: patent US11197836B2, “Topical vasoconstrictor preparations and methods for protecting cells during cancer chemotherapy and radiotherapy” (WISCONSIN ALUMNI RESEARCH FOUNDATION, priority 2005, dated 2021)
“Also recorded” adds a separate entry of the source. Counter-ions that a name gives are not always drawn. Like-named read-outs stand apart in the source and are kept apart here. One block for each molecule: values may come before it.

Tests used:
coat density = conditions: ten-day old Sprague-Dawley rats
Procedure: On day 20 of life, coat density on the dorsal back of each animal was visually scored as a percentage of the normal coat density for an untreated 20 day old rat. At 30 μg/gm b.w.

[1] = blood plasma, following intravenous infusion or oral administration; cited from earlier work
rat skin = assay: Penetration of topically applied dye into rat skin; format: in vivo; conditions: applied to rat skin in an alcohol:water solution
Excerpt: It is preferred for certain embodiments of the invention directed to skin applications to optimize ethanol, propylene glycol, and water percentages to enable sufficient delivery of epinephrine, phenylephrine, norepinephrine, or methoxamine to the skin vasculature, to achieve transient, vasculature constriction, and by so-doing, confer protection to the stem cells of the epidermis and hair follicle. The primary skin vasculature is located within the dermis, largely creating a vascular web surrounding the hair follicle bulbs (shown in FIG. 1). Topical drug delivery to this vasculature is primarily achieved by “transfolicular” delivery, i.e., topically-applied alcohol:water solutions travel within the hair shaft channels to the hair follicle bulb, and then diffuse through the stem cells that comprise the hair follicle bulb to access the dermal vasculature surrounding the bulb. For topical solutions to access dermal vasculature, a minimum percentage of alcohol in the topical delivery vehicle is preferred to enable: i) dissolution or softening of sebaceous oil present in human hair shaft channels, and ii) penetration of the oil-stratum corneum matrix.

[2] = tested on: radiation-induced dermatitis of rat skin; conditions: for Radiation Dermatitis Score (% of Irradiated 4.5 cm^2 Area Free of Scab material): rat, 8.7 Gy γ, scored 13 days later
cheek pouch oral mucosa = assay: Blanch response of hamster cheek pouch oral mucosa, Example 15; format: in vivo, Syrian Golden hamster; conditions: 10 mM in 5:1:94 ethanol:HPMC:PBS, after 30 min
Procedure: Hamsters were anesthetized with sodium pentobarbital, the cheek pouch was everted with forceps, rinsed with water and blotted, and immobilized on a 2 cm diameter inert plastic disk using stainless steel clips (see panels in FIG. 11). […] Digital images were recorded.

human skin [3] = conditions: for Skin Blanch Response: human arm skin; for blanching of the skin: human skin, over the 180 min observation period
[4] = tested on: radiation-induced oral mucositis; conditions: for Muscositis Severity Score: score 0-17, day 16
Procedure: In an assay based upon Alvarez eta/. […] Additional topical formulation was applied with Q-tip to uniformly cover the everted, interior surface of the cheek pouch. After 20 min, the vehicle-coated, immobilized cheek pouch was taped into position over a 1.5 cm diameter window bored through a 2.5 cm thick lead plate. The sleeping hamster was immobilized on a small shelf on the plate that enabled cheek pouch irradiation through the window.
After irradiation, the cheek pouch was rinsed with water, blotted and reverted. The severity of mucositis in the irradiated cheek pouch was scored 16 days later using the following criteria.

[5] = tested on: radiation-induced or Cytoxan-induced alopecia; conditions: neonate rat, day 20 of life
Excerpt: The severity of the alopecia was scored nine days later—on day 20 of life.

[6] = tested on: chemotherapy-induced alopecia; conditions: 950 mM topical four times in two hr, 10 day old rat pups, Cytoxan 30 μg/gm b.w. i.p.
[7] = tested on: radiodermatitis of rat skin; assay: Radiodermatitis prevention after 27 Gy 6 MeV electron beam irradiation of rat skin, Example 14; format: in vivo; conditions: 300 mM topical
Procedure: Adult rats ([…]) were clipped to remove the coat covering their dorsal backs. Aliquots (100 μl) of topical drug formulation containing 300 mM norepinephrine were applied once to the backs of the rats, and at set time points afterward, a rectangle (1.5 cm×3 cm) within the topical treatment field received a 27 Gy dose of 6 MeV electrons from a linear accelerator. Animals were anesthetized with 30 μg/gm b.w. sodium pentobarbital prior to irradiation. Following irradiation, rats were returned to cages, and 13 days later the severity of radiodermatitis within the irradiated rectangular field was visually scored and photographed. A “Radiodermatitis Severity Score” between 0 and 100 represents the percentage of the irradiated field that is covered by scab material on day 13 following irradiation.

[8] = Sustained solubility of norepinephrine tartrate in ethanol:PG:water mixtures, Example 7; format: physicochemical; conditions: 600 mM
Procedure: Solvent composed of ethanol:propylene glycol (PG):water in the percentages (vol:vol:vol)·specified in FIG. 3 was then added to each vial. Vials were heated as necessary to dissolve norepinephrine by touching vials to a boiling water bath for one second increments and then vortexing until clear. Sealed vials were left at room temperature for 24 hours, and at 4° C. for 24 hours. During the two 24 hour incubations, liquid in each vial was examined using a magnifying glass to identify the formation of any crystalline material. If crystals formed, norepinephrine was noted as “insoluble” at that solvent mixture.

adrenergic receptor = conditions: cited from earlier work
dermal vasculature = assay: Exclusion of systemic dye from rat skin (colorimeter), Example 18; format: in vivo; conditions: 300 mM in 50:30:20 vehicle, 30 min time point
Procedure: 400 μl of a black dye solution was injected into each test rat as an i.p. bolus at 10 min after topical treatment with either 300 mM norepinephrine or vehicle alone. Colorimeter measurements of skin color in patches were made and the progression was recorded from 0 through 30 min. The change in colorimeter units between the 0 min reading and readings at indicated time points are plotted in FIG. 15. Colorimeter measurements of skin color were made using a CR-400 colorimeter (Minolta Corp.).

[9] = tested on: radiation-induced oral mucositis; assay: Radiation-induced oral mucositis in hamster cheek pouch, Example 16; conditions: hamster cheek pouch
human skin [10] = assay: Human skin blanch 20 min after topical application, Example 6; format: in vivo; conditions: applied to unbroken human skin
Procedure: (§1) The approximate amount of heat required to dissolve the vasoconstrictor salt in each diluent is indicated. Once diluted, samples were sealed and held at room temperature (22° C.) for 24 hours and then at 4° C. for 24 hours. Skin blanch induced by the topical formulation was assessed by applying freshly made, clear formulation to human skin shortly after initial mixing. Drug solutions were monitored for the appearance of precipitated material over a 48 hour observation period.

[11] = Dissolution and 24 hr solution status of vasoconstrictor salts in ethanol:PG:water diluents, Example 6; format: physicochemical; conditions: at the concentrations required to induce an acceptable blanch response
Procedure: Aliquots of each vasoconstrictor salt were weighed into glass test tubes. The volume of liquid necessary to achieve the indicated final drug concentration was then added.
as §1

Compound: O=P1(N(CCCl)CCCl)NCCCO1 (stereo not drawn) [Cytoxan, cyclophosphamide]
coat on day 20 (coat density; 20 μg/gm b.w. and lower doses i.p.): full coats | coat on day 20 (coat density; 30 μg/gm b.w. and higher doses i.p.): nude | clearance half-life [1]: about one

Compound: CCN(CC)c1ccc2nc3c4ccccc4c(=O)cc-3oc2c1 [Nile Red]
skin penetration (rat skin): penetrates both the stratum corneum and underlying epidermis

Compound: CNC[C@H](O)c1ccc(O)c(O)c1 [epinephrine, epinephrine-HCl]
Radiation Dermatitis Score (% of Irradiated 4.5 cm^2 Area Free of Scab material) ([2]; 20 mM, vehicle 50:30:20, four topical applications): 32% | Radiation Dermatitis Score (% of Irradiated 4.5 cm^2 Area Free of Scab material) ([2]; 300 mM, vehicle 25:30:45, four topical applications): 95% | Radiation Dermatitis Score (% of Irradiated 4.5 cm^2 Area Free of Scab material) ([2]; 1000 mM, vehicle 50:30:20, four topical applications): 100% | concentration applied to skin required to confer protection against radiation dermatitis ([2]; rat skin): > 20 mM | appearance of cheek pouch (blanch) (cheek pouch oral mucosa): white and translucent | Skin Blanch Response (human skin [3]; 2 mM in 50:25:25 ethanol:propylene glycol:water, 45 min): 10% | Skin Blanch Response (human skin [3]; 2 mM in 50:25:25 ethanol:propylene glycol:water, 60 min): 40% | Skin Blanch Response (human skin [3]; 2 mM in 50:25:25 ethanol:propylene glycol:water, 150 min): 75% | Skin Blanch Response (human skin [3]; 10 mM in 50:25:25 ethanol:propylene glycol:water, 45 min): 40% | Skin Blanch Response (human skin [3]; 10 mM in 50:25:25 ethanol:propylene glycol:water, 60 min): 60% | Skin Blanch Response (human skin [3]; 10 mM in 50:25:25 ethanol:propylene glycol:water, 150 min): 90% | Skin Blanch Response (human skin [3]; 50 mM in 50:25:25 ethanol:propylene glycol:water, 45 min): 30% | Skin Blanch Response (human skin [3]; 50 mM in 50:25:25 ethanol:propylene glycol:water, 60 min): 50% | Skin Blanch Response (human skin [3]; 50 mM in 50:25:25 ethanol:propylene glycol:water, 150 min): 85% | Skin Blanch Response (human skin [3]; 0.1% (4.55 mM) in water, 45 min): 0% | Skin Blanch Response (human skin [3]; 0.1% (4.55 mM) in water, 60 min): 0% | Skin Blanch Response (human skin [3]; 0.1% (4.55 mM) in water, 150 min): 0% | Skin Blanch Response (human skin [3]; 0.1% (4.55 mM) in water, 180 min): 0% | blanching of the skin (human skin [3]; 0.1% aqueous solution): no detectable blanching | Skin Blanch Response (human skin [3]; 100 mM in 50:25:25 ethanol:propylene glycol:water, 45 min): 85% | Skin Blanch Response (human skin [3]; 100 mM in 50:25:25 ethanol:propylene glycol:water, 60 min): 90% | Skin Blanch Response (human skin [3]; 100 mM in 50:25:25 ethanol:propylene glycol:water, 150 min): 90% | Skin Blanch Response (human skin [3]; 1000 mM in 50:25:25 ethanol:propylene glycol:water, 45 min): 85% | Skin Blanch Response (human skin [3]; 1000 mM in 50:25:25 ethanol:propylene glycol:water, 60 min): 90% | Skin Blanch Response (human skin [3]; 1000 mM in 50:25:25 ethanol:propylene glycol:water, 150 min): 95% | Muscositis Severity Score ([4]; 0.05 mM, vehicle 5:5:3:87 ethanol:propylene glycol:HPMC:PBS, irradiation 20 min, Experiment C): 7.5 | Muscositis Severity Score ([4]; 0.10 mM, vehicle 5:5:3:87, irradiation 20 min, Experiment C): 5.0 | Muscositis Severity Score ([4]; 0.20 mM, vehicle 5:5:3:87, irradiation 20 min, Experiment C): 3.0 | Muscositis Severity Score ([4]; 0.40 mM, vehicle 5:5:3:87, irradiation 20 min, Experiment C): 0 | Muscositis Severity Score ([4]; 13.5 mM epinephrine + 12.3 mM epinephrine, vehicle 0:5:3:92, irradiation 24 min, Experiment B): 11.7 ± 0.7 | Muscositis Severity Score ([4]; 100.00 mM, vehicle 5:0:1:94, irradiation 24 min, Experiment A): 14.5 ± 2.4 | Muscositis Severity Score ([4]; 500.00 mM, vehicle 5:0:1:94, irradiation 24 min, Experiment A): 9.0 | lowest topical concentration with discernible radioprotection of a mucosal site ([4]; hamster cheek pouch): 50 µM | Alopecia Score (% Normal Coat Density in Topical Treatment Area) ([5]; 20 mM, vehicle 50:25:25, Irradiation 7.5 Gy whole-body): 6% | Alopecia Score (% Normal Coat Density in Topical Treatment Area) ([5]; 100 mM, vehicle 50:25:25, Irradiation 7.5 Gy whole-body): 33% | Alopecia Score (% Normal Coat Density in Topical Treatment Area) ([5]; 500 mM, vehicle 50:25:25, Irradiation 7.5 Gy whole-body): 45% | Alopecia Score (% Normal Coat Density in Topical Treatment Area) ([5]; 1000 mM, vehicle 0:100:0, Irradiation 7.5 Gy whole-body): 95% | Alopecia Score (% Normal Coat Density in Topical Treatment Area) ([5]; 1000 mM, vehicle 25:30:45, Cytoxan 32 μ/gm b.w. i.p.): 40% | Alopecia Score (% Normal Coat Density in Topical Treatment Area) ([5]; 1000 mM, vehicle 25:30:45 ethanol:propylene glycol:water, alopecia-inducing agent None): 100% | Alopecia Score (% Normal Coat Density in Topical Treatment Area) ([5]; 1000 mM, vehicle 50:25:25, Irradiation 7.5 Gy whole-body): 94% | coat protection on day 20 [6]: partial coat protection

solubility (no crystals over 24 hr room temperature and 24 hr 4° C.) ([8]; 55:20:25 ethanol:PG:water): not soluble | solubility (no crystals over 24 hr room temperature and 24 hr 4° C.) ([8]; around 50:30:20 ethanol:PG:water): areas of solubility | solubility (no crystals over 24 hr room temperature and 24 hr 4° C.) ([8]; around 60:10:30 ethanol:PG:water): areas of solubility
Compound: NC[C@H](O)c1ccc(O)c(O)c1 [norepinephrine]
protection against Grade 2 dermatitis [7]: complete protection | agonism of the β2 receptor (adrenergic receptor): not an agonist of the β2 receptor | binding affinity (potency) for the α1 adrenergic receptor (adrenergic receptor): slightly better than for epinephrine | reduction of delivery of systemic, blood-borne dye to treated skin (dermal vasculature): 39%

Compound: CNC[C@H](O)c1cccc(O)c1 [phenylephrine, phenylephrine-HCl]
appearance of cheek pouch (blanch) (cheek pouch oral mucosa): white and translucent | protection against γ radiation-induced mucositis ([9]; 10 mM topical): completely protective; also recorded: completely preventing | mucosal pathology ([9]; large excess doses combined with 24 min of irradiation (40 Gy)): severe mucosal pathology | mucosal pathology ([9]; large excess doses without irradiation): no discernible mucosal pathology | Skin Blanch Response (human skin [3]; 30 mM in 60:30:10 vehicle, 180 min): 0% | Skin Blanch Response (human skin [3]; 150 mM in 60:30:10 vehicle, 180 min): 35% | Skin Blanch Response (human skin [3]; 0.25% (12.3 mM) in water, 180 min): 0% | blanching of the skin (human skin [3]; 0.25% aqueous solution): no detectable blanching | Skin Blanch Response (human skin [3]; 300 mM in 60:30:10 vehicle, 180 min): 50% | Skin Blanch Response (human skin [3]; 1000 mM in 60:30:10 vehicle, 180 min): 60% | Skin Blanch Response (human skin [3]; 2500 mM in 60:30:10 vehicle, 180 min): 70% | Muscositis Severity Score ([4]; 12.3 mM, vehicle 0:5:3:92, irradiation 24 min, Experiment B): 5.0 ± 0.1 | potency to induce skin blanch (human skin [10]): lacks the potency to adequately induce skin blanch | solubility in topical vehicles [11]: not stably soluble
